# In PubChem BioAssay (NCI):
#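 Cultured in 96-well plates, cells were exposed to test compound for 48 hours across five concentrations. GI50: concentration for 50% inhibition of growth. Definition used: TGI = concentration required for complete inhibition of growth.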
# Experiments:
# Assay in all cases: growth of human tumour cells (NCI), 48 h
# 786-0 renal = system: 786-0 renal
# A498 renal = system: A498 renal
# A549 NSCLC = system: A549 NSCLC
# ACHN renal = system: ACHN renal
# BT-549 breast = system: BT-549 breast
# CAKI-1 renal = system: CAKI-1 renal
# CCRF-CEM leukemia = system: CCRF-CEM leukemia
# COLO 205 colon = system: COLO 205 colon
# DU-145 prostate = system: DU-145 prostate
# HCC-2998 colon = system: HCC-2998 colon
# HCT-116 colon = system: HCT-116 colon
# HCT-15 colon = system: HCT-15 colon
# HL-60(TB) leukemia = system: HL-60(TB) leukemia
# HOP-62 NSCLC = system: HOP-62 NSCLC
# HOP-92 NSCLC = system: HOP-92 NSCLC
# HS 578T breast = system: HS 578T breast
# HT29 colon = system: HT29 colon
# IGROV1 ovarian = system: IGROV1 ovarian
# K-562 leukemia = system: K-562 leukemia
# KM12 colon = system: KM12 colon
# LOX IMVI melanoma = system: LOX IMVI melanoma
# M14 melanoma = system: M14 melanoma
# MALME-3M melanoma = system: MALME-3M melanoma
# MCF7 breast = system: MCF7 breast
# MDA-MB-231 breast = system: MDA-MB-231 breast
# MDA-MB-435 = system: MDA-MB-435
# MOLT-4 leukemia = system: MOLT-4 leukemia
# NCI-H226 lung = system: NCI-H226 lung
# NCI-H23 lung = system: NCI-H23 lung
# NCI-H460 lung = system: NCI-H460 lung
# NCI-H522 lung = system: NCI-H522 lung
# NCI/ADR-RES ovarian = system: NCI/ADR-RES ovarian
# OVCAR-3 ovarian = system: OVCAR-3 ovarian
# OVCAR-4 ovarian = system: OVCAR-4 ovarian
# OVCAR-5 ovarian = system: OVCAR-5 ovarian
# OVCAR-8 ovarian = system: OVCAR-8 ovarian
# PC-3 prostate = system: PC-3 prostate
# RPMI-8226 leukemia = system: RPMI-8226 leukemia
# RXF 393 renal = system: RXF 393 renal
# SF-268 CNS = system: SF-268 CNS
# SF-295 CNS = system: SF-295 CNS
# SF-539 CNS = system: SF-539 CNS
# SK-MEL-2 melanoma = system: SK-MEL-2 melanoma
# SK-MEL-28 melanoma = system: SK-MEL-28 melanoma
# SK-MEL-5 melanoma = system: SK-MEL-5 melanoma
# SK-OV-3 ovarian = system: SK-OV-3 ovarian
# SN12C renal = system: SN12C renal
# SNB-19 CNS = system: SNB-19 CNS
# SNB-75 CNS = system: SNB-75 CNS
# SR leukemia = system: SR leukemia
# SW-620 colon = system: SW-620 colon
# T-47D breast = system: T-47D breast
# TK-10 renal = system: TK-10 renal
# U251 CNS = system: U251 CNS
# UACC-257 melanoma = system: UACC-257 melanoma
# UACC-62 melanoma = system: UACC-62 melanoma
# UO-31 renal = system: UO-31 renal
compound,measurement,setting,value
Nc1ncnc2c1c(-c1cccc(OCc3ccccc3)c1)cn2C1CC(CN2CCCC2)C1 (centres undefined),GI50,786-0 renal,1720 nM
same,TGI,786-0 renal,3.34 µM
same,GI50,A498 renal,1720 nM
same,TGI,A498 renal,4.66 µM
same,GI50,A549 NSCLC,939 nM
same,TGI,A549 NSCLC,7.17 µM
same,GI50,ACHN renal,2930 nM
same,TGI,ACHN renal,11 µM
same,GI50,BT-549 breast,2020 nM
same,TGI,BT-549 breast,4.99 µM
same,GI50,CAKI-1 renal,2080 nM
same,TGI,CAKI-1 renal,9.27 µM
same,GI50,CCRF-CEM leukemia,2510 nM
same,TGI,CCRF-CEM leukemia,6.66 µM
same,GI50,COLO 205 colon,331 nM
same,TGI,COLO 205 colon,1470 nM
same,GI50,DU-145 prostate,4 µM
same,TGI,DU-145 prostate,16.9 µM
same,GI50,HCC-2998 colon,2000 nM
same,TGI,HCC-2998 colon,6.13 µM
same,GI50,HCT-116 colon,1380 nM
same,TGI,HCT-116 colon,5.34 µM
same,GI50,HCT-15 colon,1470 nM
same,TGI,HCT-15 colon,5.94 µM
same,GI50,HL-60(TB) leukemia,426 nM
same,TGI,HL-60(TB) leukemia,3.03 µM
same,GI50,HOP-62 NSCLC,1990 nM
same,TGI,HOP-62 NSCLC,5.5 µM
same,GI50,HOP-92 NSCLC,74.9 nM
same,TGI,HOP-92 NSCLC,867 nM
same,GI50,HS 578T breast,1600 nM
same,TGI,HS 578T breast,4.19 µM
same,GI50,HT29 colon,117 nM
same,TGI,HT29 colon,1630 nM
same,GI50,IGROV1 ovarian,2920 nM
same,TGI,IGROV1 ovarian,7.5 µM
same,GI50,K-562 leukemia,1860 nM
same,TGI,K-562 leukemia,6.54 µM
same,GI50,KM12 colon,1930 nM
same,TGI,KM12 colon,4.26 µM
same,GI50,LOX IMVI melanoma,1520 nM
same,TGI,LOX IMVI melanoma,3 µM
same,GI50,M14 melanoma,1610 nM
same,TGI,M14 melanoma,3.2 µM
same,GI50,MALME-3M melanoma,2060 nM
same,TGI,MALME-3M melanoma,5.7 µM
same,GI50,MCF7 breast,141 nM
same,TGI,MCF7 breast,2000 nM
same,GI50,MDA-MB-231 breast,1880 nM
same,TGI,MDA-MB-231 breast,4.54 µM
same,GI50,MDA-MB-435,1290 nM
same,TGI,MDA-MB-435,3.08 µM
same,GI50,MOLT-4 leukemia,2700 nM
same,TGI,MOLT-4 leukemia,8.57 µM
same,GI50,NCI-H226 lung,1340 nM
same,TGI,NCI-H226 lung,6.98 µM
same,GI50,NCI-H23 lung,2910 nM
same,TGI,NCI-H23 lung,16 µM
same,GI50,NCI-H460 lung,1660 nM
same,TGI,NCI-H460 lung,7.65 µM
same,GI50,NCI-H522 lung,1950 nM
same,TGI,NCI-H522 lung,3.73 µM
same,GI50,NCI/ADR-RES ovarian,5.01 µM
same,TGI,NCI/ADR-RES ovarian,21.5 µM
same,GI50,OVCAR-3 ovarian,4.06 µM
same,TGI,OVCAR-3 ovarian,14.9 µM
same,GI50,OVCAR-4 ovarian,1860 nM
same,TGI,OVCAR-4 ovarian,6.59 µM
same,GI50,OVCAR-5 ovarian,705 nM
same,TGI,OVCAR-5 ovarian,6.82 µM
same,GI50,OVCAR-8 ovarian,4.74 µM
same,TGI,OVCAR-8 ovarian,18 µM
same,GI50,PC-3 prostate,2500 nM
same,TGI,PC-3 prostate,10.4 µM
same,GI50,RPMI-8226 leukemia,1940 nM
same,TGI,RPMI-8226 leukemia,5.4 µM
same,GI50,RXF 393 renal,1210 nM
same,TGI,RXF 393 renal,2680 nM
same,GI50,SF-268 CNS,1940 nM
same,TGI,SF-268 CNS,4.61 µM
same,GI50,SF-295 CNS,1900 nM
same,TGI,SF-295 CNS,3.87 µM
same,GI50,SF-539 CNS,1600 nM
same,TGI,SF-539 CNS,3.02 µM
same,GI50,SK-MEL-2 melanoma,1660 nM
same,TGI,SK-MEL-2 melanoma,3.35 µM
same,GI50,SK-MEL-28 melanoma,1400 nM
same,TGI,SK-MEL-28 melanoma,2800 nM
same,GI50,SK-MEL-5 melanoma,1390 nM
same,TGI,SK-MEL-5 melanoma,2760 nM
same,GI50,SK-OV-3 ovarian,2440 nM
same,TGI,SK-OV-3 ovarian,5.85 µM
same,GI50,SN12C renal,3.09 µM
same,TGI,SN12C renal,14.5 µM
same,GI50,SNB-19 CNS,4.19 µM
same,TGI,SNB-19 CNS,16.9 µM
same,GI50,SNB-75 CNS,1240 nM
same,TGI,SNB-75 CNS,3.19 µM
same,GI50,SR leukemia,2400 nM
same,TGI,SR leukemia,11.2 µM
same,GI50,SW-620 colon,1030 nM
same,TGI,SW-620 colon,3.53 µM
same,GI50,T-47D breast,2040 nM
same,TGI,T-47D breast,6.59 µM
same,GI50,TK-10 renal,1840 nM
same,TGI,TK-10 renal,5.05 µM
same,GI50,U251 CNS,1510 nM
same,TGI,U251 CNS,2960 nM
same,GI50,UACC-257 melanoma,867 nM
same,TGI,UACC-257 melanoma,2180 nM
same,GI50,UACC-62 melanoma,1840 nM
same,TGI,UACC-62 melanoma,3.78 µM
same,GI50,UO-31 renal,1280 nM
same,TGI,UO-31 renal,3.61 µM
